The source made the active and inactive calls. The rule behind the calls is not given here.
Legend:
[1] = Inhibition of PI3K/AKT/mTOR signaling pathway in human MDA-MB-231 cells assessed as decrease in mTOR phosphorylation at 1 to 4 uM incubated for 6 hrs by Western blot analysis; format: cell-based; details: dose 1-4 µM
MDA-MB-231 [2] = experiment: Inhibition of cell migration human MDA-MB-231 cells assessed as migration distance at 25 uM incubated for 24 hrs by wound healing assay (reference value: 642.72 micrometer); format: functional
[3] = target: Dual specificity tyrosine-phosphorylation-regulated kinase 1A (Homo sapiens, UniProt Q13627); experiment: Inhibition of DYRK1A (unknown origin)
[4] = Inhibition of PI3K/AKT/mTOR signaling pathway in human MDA-MB-231 cells assessed as decrease in EGFR expression at 1 to 4 uM incubated for 6 hrs by Western blot analysis; format: cell-based; details: dose 1-4 µM
[5] = Inhibition of PI3K/AKT/mTOR signaling pathway in human MDA-MB-231 cells assessed as increase in p38 expression at 2 to 4 uM incubated for 6 hrs by Western blot analysis; format: cell-based; details: dose 2-4 µM
MDA-MB-231 [6] = experiment: Antitumor activity against human MDA-MB-231 cells xenografted in nude mouse assessed as decrease in CD31 expression at 10 mg/kg, ip measured for 3 days by immunohistochemistry analysis; format: functional, organism-based; details: time 3.0 day
A549 = experiment: Antiproliferative activity against human A549 cells assessed as reduction in cell viability measured for 48 hrs by MTT assay; format: functional, cell-based; details: A549, 48 h
MDA-MB-231 [7] = experiment: Antiproliferative activity against human MDA-MB-231 cells assessed as reduction in viability at 10 uM incubated for 7.5 hrs by MTT assay; format: functional
MDA-MB-231 [8] = experiment: Induction of apoptosis in human MDA-MB-231 cells assessed as apoptotic cells at 4 uM incubated for 48 hrs by Annexin V-FITC/PI staining based analysis; format: functional
MDA-MB-231 [9] = experiment: Antitumor activity against human MDA-MB-231 cells xenografted in nude mouse assessed as inhibition of spleen metastasis in tumor at 10 mg/kg, ip measured for 3 days; format: functional, organism-based; details: time 3.0 day
MDA-MB-231 [10] = experiment: Induction of apoptosis in human MDA-MB-231 cells assessed as apoptotic cells at 4 uM incubated for 24 hrs by Annexin V-FITC/PI staining based analysis; format: functional
[11] = target: Dual specificity protein kinase CLK2 (Homo sapiens, UniProt P49760); experiment: Inhibition of CLK2 (unknown origin)
MDA-MB-231 [12] = experiment: Induction of apoptosis in human MDA-MB-231 cells assessed as apoptotic cells at 40 uM incubated for 24 hrs by Annexin V-FITC/PI staining based analysis; format: functional
[13] = Inhibition of PI3K/AKT/mTOR signaling pathway in human MDA-MB-231 cells assessed as decrease in mTOR expression at 1 to 4 uM incubated for 6 hrs by Western blot analysis; format: cell-based; details: dose 1-4 µM
MDA-MB-231 [14] = experiment: Antitumor activity against human MDA-MB-231 cells xenografted in nude mouse assessed as decrease in tumor size at 10 to 20 mg/kg, ip measured for 3 days; format: functional, organism-based; details: dose 10-20 mg/kg, time 3.0 day
MDA-MB-231 [15] = experiment: Antitumor activity against human MDA-MB-231 cells xenografted in nude mouse assessed as decrease in Ki67 expression at 10 mg/kg, ip measured for 3 days by immunohistochemistry analysis; format: functional, organism-based; details: time 3.0 day
[16] = Antiproliferative activity against human HUVEC cells assessed as reduction in cell viability measured for 48 hrs by MTT assay; format: toxicity, cell-based
MDA-MB-231 [17] = experiment: Antitumor activity against human MDA-MB-231 cells xenografted in nude mouse assessed as reduction in tumor growth at 10 to 20 mg/kg, ip measured for 3 days; format: functional, organism-based; details: dose 10-20 mg/kg, time 3.0 day
HepG2 = experiment: Antiproliferative activity against human HepG2 cells assessed as reduction in cell viability measured for 48 hrs by MTT assay; format: functional, cell-based; details: HepG2, 48 h
[18] = target: Casein kinase I isoform epsilon (Homo sapiens, UniProt P49674); experiment: Inhibition of CK1epsilon (unknown origin)
MDA-MB-231 [19] = experiment: Induction of apoptosis in human MDA-MB-231 cells assessed as apoptotic cells at 40 uM incubated for 12 hrs by Annexin V-FITC/PI staining based analysis; format: functional
MDA-MB-231 [20] = experiment: Inhibition of cell migration human MDA-MB-231 cells assessed as migration distance at 25 uM incubated for 48 hrs by wound healing assay (reference value: 642.72 micrometer); format: functional
HCT-116 = experiment: Antiproliferative activity against human HCT-116 cells assessed as reduction in cell viability measured for 48 hrs by MTT assay; format: functional, cell-based; details: HCT-116, 48 h
[21] = target: Dual specificity protein kinase CLK4 (Homo sapiens, UniProt Q9HAZ1); experiment: Inhibition of CLK4 (unknown origin)
MDA-MB-231 [22] = experiment: Induction of ROS generation in human MDA-MB-231 cells assessed as increase in intracellular ROS level at 40 uM incubated for 48 hrs by DCFH-DA staining based fluorescence microscopic analysis (Rvb=79.6%); format: functional
MGC-803 = experiment: Antiproliferative activity against human MGC-803 cells assessed as reduction in cell viability measured for 48 hrs by MTT assay; format: functional, cell-based; details: MGC-803, 48 h
MDA-MB-231 [23] = experiment: Antitumor activity against human MDA-MB-231 cells xenografted in nude mouse assessed as inhibition of lung metastasis in tumor at 10 mg/kg, ip measured for 3 days; format: functional, organism-based; details: time 3.0 day
MDA-MB-231 [24] = experiment: Induction of apoptosis in human MDA-MB-231 cells assessed as apoptotic cells at 40 uM incubated for 48 hrs by Annexin V-FITC/PI staining based analysis; format: functional
MDA-MB-231 [25] = experiment: Induction of apoptosis in human MDA-MB-231 cells assessed as increase in number of cell debris at 4 uM incubated for 48 hrs; format: functional, cell-based
MDA-MB-231 [26] = experiment: Inhibition of cell migration human MDA-MB-231 cells at 0.01 to 0.4 uM incubated for 24 hrs by DAPI staining based analysis; format: functional; details: dose 0.01-0.4 µM
HUVEC = experiment: Antiangiogenesis activity in HUVEC cells at 62.5 nM incubated for 12 hrs by microscopic analysis; format: functional, cell-based; details: Homo sapiens
[27] = Inhibition of PI3K/AKT/mTOR signaling pathway in human MDA-MB-231 cells assessed as increase in p38 phosphorylation at 2 to 4 uM incubated for 6 hrs by Western blot analysis; format: cell-based; details: dose 2-4 µM
[28] = Inhibition of PI3K/AKT/mTOR signaling pathway in human MDA-MB-231 cells assessed as decrease in AKT expression at 1 to 4 uM incubated for 6 hrs by Western blot analysis; format: cell-based; details: dose 1-4 µM
MDA-MB-231 [29] = experiment: Induction of apoptosis in human MDA-MB-231 cells assessed as apoptotic cells at 4 uM incubated for 12 hrs by Annexin V-FITC/PI staining based analysis; format: functional
MDA-MB-468 = experiment: Antiproliferative activity against human MDA-MB-468 cells assessed as reduction in cell viability measured for 48 hrs by MTT assay; format: functional, cell-based; details: MDA-MB-468, 48 h
MDA-MB-231 [30] = experiment: Antiproliferative activity against human MDA-MB-231 cells assessed as reduction in viability at 4 uM incubated for 7.5 hrs by MTT assay; format: functional
[31] = Toxicity in nude mouse xenografted with human MDA-MB-231 cells assessed as change in body weight at 10 to 20 mg/kg, ip measured for 3 days; format: organism-based; details: in vivo, 72 h, dose 10-20 mg/kg, time 3 day

Sequence of Casein kinase I isoform epsilon (P49674 whole entry, canonical isoform): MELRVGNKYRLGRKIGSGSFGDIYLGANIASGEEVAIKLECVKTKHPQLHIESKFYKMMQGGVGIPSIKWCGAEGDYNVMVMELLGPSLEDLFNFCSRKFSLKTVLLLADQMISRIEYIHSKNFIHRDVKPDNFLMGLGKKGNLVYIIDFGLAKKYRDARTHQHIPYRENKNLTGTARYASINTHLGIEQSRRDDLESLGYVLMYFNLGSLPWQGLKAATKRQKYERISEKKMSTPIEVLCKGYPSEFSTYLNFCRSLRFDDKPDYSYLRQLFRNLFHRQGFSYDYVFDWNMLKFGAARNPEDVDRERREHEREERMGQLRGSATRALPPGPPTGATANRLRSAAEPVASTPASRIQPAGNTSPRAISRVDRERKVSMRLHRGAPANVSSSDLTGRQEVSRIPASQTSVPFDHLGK
Sequence of Dual specificity protein kinase CLK2 (P49760 whole entry): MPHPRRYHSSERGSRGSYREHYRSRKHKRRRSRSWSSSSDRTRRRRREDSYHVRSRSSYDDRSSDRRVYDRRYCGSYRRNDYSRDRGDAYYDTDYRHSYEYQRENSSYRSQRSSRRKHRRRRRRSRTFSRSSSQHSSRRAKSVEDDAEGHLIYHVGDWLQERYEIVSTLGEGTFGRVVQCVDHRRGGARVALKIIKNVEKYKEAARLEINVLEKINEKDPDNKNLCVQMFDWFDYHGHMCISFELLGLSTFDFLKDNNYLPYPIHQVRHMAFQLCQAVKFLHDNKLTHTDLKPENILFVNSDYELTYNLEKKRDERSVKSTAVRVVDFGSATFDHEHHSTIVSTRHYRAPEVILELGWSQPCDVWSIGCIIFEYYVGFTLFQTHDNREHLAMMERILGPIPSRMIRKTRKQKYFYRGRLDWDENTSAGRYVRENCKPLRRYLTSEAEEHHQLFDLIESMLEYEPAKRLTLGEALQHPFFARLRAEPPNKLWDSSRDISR
Sequence of Dual specificity protein kinase CLK4 (Q9HAZ1 whole entry): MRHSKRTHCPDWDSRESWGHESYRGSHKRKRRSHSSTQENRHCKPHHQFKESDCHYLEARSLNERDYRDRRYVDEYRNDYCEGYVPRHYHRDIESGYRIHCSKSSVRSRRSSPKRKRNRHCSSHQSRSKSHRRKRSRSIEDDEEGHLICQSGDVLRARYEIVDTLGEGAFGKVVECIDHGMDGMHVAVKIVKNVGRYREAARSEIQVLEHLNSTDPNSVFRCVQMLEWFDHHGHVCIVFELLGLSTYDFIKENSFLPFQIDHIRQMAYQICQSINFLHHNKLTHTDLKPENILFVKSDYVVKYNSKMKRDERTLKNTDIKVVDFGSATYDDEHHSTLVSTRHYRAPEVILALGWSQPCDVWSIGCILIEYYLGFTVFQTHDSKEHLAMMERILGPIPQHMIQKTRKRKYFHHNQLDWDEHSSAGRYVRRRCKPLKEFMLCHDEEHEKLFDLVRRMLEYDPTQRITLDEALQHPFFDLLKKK

OCCN1CCC(C2CCN(c3nc(NCc4ccc(F)c(Cl)c4)c4ncn(CC5CC5)c4n3)CC2)CC1
inhibition [1]: Active | Activity (MDA-MB-231 [2]): 15.08 um | IC50 [3]: 3.89 µM | inhibition [4]: Active | inhibition [5]: Active | Activity (MDA-MB-231 [6]): Active | IC50 (A549): 2.12 µM | Activity (MDA-MB-231 [7]): ~100% | Activity (MDA-MB-231 [8]): 96.3% | Activity (MDA-MB-231 [9]): Active | Activity (MDA-MB-231 [10]): 97.1% | IC50 [11]: 0.194 µM | Activity (MDA-MB-231 [12]): >95% | inhibition [13]: Active | Activity (MDA-MB-231 [14]): Active | Activity (MDA-MB-231 [15]): Active | IC50 at 48 h [16]: 4.26 µM | Activity (MDA-MB-231 [17]): Active | IC50 (HepG2): 1.68 µM | IC50 [18]: 0.296 µM | Activity (MDA-MB-231 [19]): >95% | Activity (MDA-MB-231 [20]): 23.48 um | IC50 (HCT-116): 0.34 µM | IC50 [21]: 0.685 µM | Activity (MDA-MB-231 [22]): 80.7% | IC50 (MGC-803): 3.89 µM | Activity (MDA-MB-231 [23]): Active | Activity (MDA-MB-231 [24]): >95% | Activity (MDA-MB-231 [25]): Active | inhibition (MDA-MB-231 [26]): Active | Activity (HUVEC): Active | inhibition [27]: Active | inhibition [28]: Active | Activity (MDA-MB-231 [29]): 83.5% | IC50 (MDA-MB-468): 2.82 µM | Activity (MDA-MB-231 [30]): ~100% | Activity [31]: Non-Toxic

From ChEMBL document CHEMBL5634109, “Synthesis and mechanism of action of new purine derivatives against triple negative breast cancer” (Eur J Med Chem, 2023)
